Source: ChEMBL document CHEMBL5518211, “Design, Synthesis, and Antitumor Activity Evaluation of Novel VISTA Small Molecule Inhibitors” (J Med Chem, 2024)

Assays:
[1] = molecular target: T1, V-type immunoglobulin domain-containing suppressor of T-cell activation (Mus musculus, UniProt Q9D659); assay: Binding affinity to mouse VISTA ECD assessed as dissociation constant by MST analysis
T1 sequence (Q9D659 whole entry): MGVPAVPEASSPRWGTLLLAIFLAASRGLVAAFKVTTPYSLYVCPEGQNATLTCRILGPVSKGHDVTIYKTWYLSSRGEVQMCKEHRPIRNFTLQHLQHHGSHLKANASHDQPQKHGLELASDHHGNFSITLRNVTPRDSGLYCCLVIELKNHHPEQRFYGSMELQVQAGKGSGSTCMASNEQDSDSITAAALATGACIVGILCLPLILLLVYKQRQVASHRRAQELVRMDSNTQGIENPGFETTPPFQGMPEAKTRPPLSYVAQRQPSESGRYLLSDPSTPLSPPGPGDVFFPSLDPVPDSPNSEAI

[2] = molecular target: T2, V-type immunoglobulin domain-containing suppressor of T-cell activation (Homo sapiens, UniProt Q9H7M9)
T2 sequence (Q9H7M9 whole entry): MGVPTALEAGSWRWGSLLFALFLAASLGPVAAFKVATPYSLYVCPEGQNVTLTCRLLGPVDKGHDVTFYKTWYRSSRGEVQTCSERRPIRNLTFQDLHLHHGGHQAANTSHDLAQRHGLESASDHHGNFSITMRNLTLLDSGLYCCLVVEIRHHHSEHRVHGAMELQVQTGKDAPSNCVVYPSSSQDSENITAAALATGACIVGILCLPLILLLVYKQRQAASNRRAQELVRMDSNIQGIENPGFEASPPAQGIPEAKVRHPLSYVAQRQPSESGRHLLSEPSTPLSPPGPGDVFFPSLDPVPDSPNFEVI
Description: Binding affinity to human VISTA assessed as dissociation constant by MST analysis

Row | Kd [1] | Kd [2] | SMILES
1 | 0.647 µM | – | Cc1ccc2nc(Nc3nc(O)cc(CSc4nnc(C)s4)n3)nc(C)c2c1
2 | – | 4.73 µM | COC1C=C(CNCCNC(C)=O)N=C(Nc2cccc(O)c2)N1 (configuration not stated)
